The source of these data is patent US20240239738A1, “(S)-3-AMINO-4-(DIFLUOROMETHYLENE)CYCLOHEXENE AND CYCLOHEXANE CARBOXYLIC ACID AND USES THEREOF AS SELECTIVE INACTIVATORS OF HUMAN ORNITHINE AMINOTRANSFERASE (hOAT)” (Northwestern University, priority 2021, published 2024).

Each structure is given as a SMILES string. Where two headings read alike, the source gives them in different places.

One may read the kinact as the rate constant of inactivation at saturating inhibitor. By AUC(0-inf) is commonly meant total exposure, with the tail of the curve extrapolated. A lower AUC(0-inf) goes with low exposure. Usually AUC(0-t) stands for exposure summed from dosing to a finite time, without extrapolation to infinity. A lower AUC(0-t) goes with less exposure. In general, clearance refers to the rate of elimination divided by the concentration. Lower therefore signals a low capacity for elimination. Usually half-life stands for the time in which the quantity being followed falls by half. Broadly, the bioavailability is dose-corrected exposure relative to a reference, in per cent. By Tmax is commonly meant the time from dosing to the highest level.

In series [1] the target is T1, hOAT (Homo sapiens, UniProt P04181).
T1 construct: made in house
T1 sequence (P04181 with tags, fused parts or gaps): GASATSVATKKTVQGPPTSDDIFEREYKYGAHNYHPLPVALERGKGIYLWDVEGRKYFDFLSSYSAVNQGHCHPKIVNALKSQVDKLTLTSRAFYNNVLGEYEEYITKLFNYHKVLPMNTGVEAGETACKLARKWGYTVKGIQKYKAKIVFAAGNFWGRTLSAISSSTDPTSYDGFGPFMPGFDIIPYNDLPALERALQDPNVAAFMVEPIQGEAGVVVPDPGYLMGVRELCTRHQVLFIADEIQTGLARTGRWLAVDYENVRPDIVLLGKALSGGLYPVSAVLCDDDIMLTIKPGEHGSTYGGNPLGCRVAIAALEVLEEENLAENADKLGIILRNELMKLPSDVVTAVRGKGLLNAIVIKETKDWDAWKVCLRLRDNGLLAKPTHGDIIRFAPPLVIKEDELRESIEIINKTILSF
In words: Time-dependent dialysis (reactivation) of inhibited hOAT. The settings on record: hOAT partially or fully inhibited (0.6-2.0 equivalents of 14); up to 91 h of dialysis. The format is biochemical. As for the experimental part: Previously, five-membered ring analogs 5 and 9 were identified as partially irreversible inhibitors of GABA-AT, with the formation of the tight-binding adducts.^29-30 Thus, time-dependent reactivation experiments of hOAT for cyclohexene analog 14 were carried out to determine if similar reversible components were also involved during the inactivation. After hOAT activity was partially or fully abolished by 0.6-2.0 equivalents of 14, aliquots at different time intervals were collected and assayed for the return of enzyme activity.
The dialysis experiment was conducted using previous protocols.^6, 8-9

Series [2] deals with aspartate aminotransferase (Asp-AT). The experiment in a line: Coupled enzyme assay, inhibition of Asp-AT. As to conditions: at high concentrations, up to 20 mM. The format is biochemical. On the procedure: (§1) hOAT and PYCR1 were expressed, grown, and purified according to literature procedures.^3-4 GABA-AT was isolated from pig brains and purified according to a literature procedure.^5 Coupled enzyme assays for GABA-AT, hOAT, Ala-AT, and Asp-AT were carried out according to previous procedures.^6-7

Series [3] relates to alanine aminotransferase (Ala-AT). The experiment in a line: Coupled enzyme assay, inhibition of Ala-AT. Format: biochemical. As to conditions: at high concentrations, up to 20 mM. On the procedure: as §1
Series [4] addresses T1, hOAT. The experiment in a line: Partition ratio by titrating hOAT with inactivator. Format: biochemical. The settings on record: turnover number minus one. The text has this:
Usually, the partition ratio is used to determine the ratio of degradation and inactivation, calculated by titrating the enzyme with varying equivalents of inactivator. Ideally, a linear relationship (between enzyme activity remaining and equivalents of compounds) can be extrapolated to yield the exact equivalents (the intercept with the x-axis, turnover number) required to inactivate the enzyme completely. Since this obtained number includes the one molecule of inactivator required to inactivate one enzyme monomer, the partition ratio is the turnover number minus one. Therefore, the partition ratios of 5 and 14 were determined by titrating hOAT with varying equivalents of inactivators (FIG. 21). From this, we determined the partition ratio of 5 to be 4.9 and the partition ratio of 14 to be 0.6. The enlarged ring not only enhances the potency and selectivity against hOAT but also improves the efficiency of the inactivation.
The partition ratio was calculated using previous protocols.^6, 8-9

In the next series the target is T2, GABA-AT (Sus scrofa, UniProt P80147).
T2 construct: GABA-AT was isolated from pig brains and purified according to a literature procedure; from tissue; host or cells: pig brain
In words: Coupled enzyme assay, time-dependent inactivation of GABA-AT. Format: biochemical, pig. On the procedure: as §1

Another series is described as follows: in vivo PK profiles. The settings on record: for Cmax: read-out: C0/Cmax; for Kp at 0.25 h: read-out: B/P ratio @0.25 h.
In series [5] the target is T1, hOAT. The experiment in a line: Coupled enzyme assay, time-dependent inactivation of hOAT. Format: biochemical. The settings on record: for Ki / kinact / kinact/KI: hOAT. As for the experimental part: as §1
The target in series [6] is T1, hOAT. In words: Fluoride ion release on inactivation of hOAT. The settings on record: for F^− Release: enzyme 1.34 μM monomer; for Fluoride ions released per active site: excess of inactivator. Format: biochemical. An excerpt: Different equivalents of fluoride ions can be released in PLP and PMP turnover pathways. If PMP is formed in the turnover mechanism, it cannot be converted back to PLP in the absence of α-KG, which results in at most two equivalents of fluoride ion released (pathway a); more equivalents of fluoride ion would be released in the presence of α-KG if PMP is formed after the fluoride ion release step (pathway a1). If PLP is regenerated during the turnover mechanism, at least two equivalents of fluoride ions will be released in the absence of α-KG (pathway b), which should be close to the equivalents in the presence of α-KG. Based on the partition ratio and the confirmed inactivation mechanism for 14, the theoretical equivalents of fluoride ions, which are released per enzyme active site in different turnover pathways, can be calculated in the presence/absence of α-KG (Table 3). The concentration of released fluoride ions can be monitored by a fluoride ion-selective electrode. When OAT was inactivated with an excess of 14, 2.95 equivalents of fluoride ions were released in the presence of α-KG and 2.66 equivalents of fluoride ions were released in the absence of α-KG (Table 3).
The fluoride ion release assay was conducted using previous protocols.^2 The final concentration of hOAT in the sample was determined to be 61.7±4.1 ug/mL (monomer, 1.34±0.12 μM) via BSA assay and calculation of dilution. A calibration curve of voltage (V, mV) was generated from varying concentrations of NaF (F, μM) to get the equation: F^−=10^((V−181.4)/−54.21). For accurate detection of fluoride ion concentration, 2.0 μM of fluoride ion was added to each control and sample. The number of fluoride ions released per active site was calculated by the ratio of the fluoride ion release concentration and hOAT concentration.

In series [7] the target is T1, hOAT. As to conditions: cited from earlier work.
The mark [8] stands for this setting: values marked b from the slope of kobs vs [I], read-out: kinact/KI (converted).

T2 sequence (P80147 29-500): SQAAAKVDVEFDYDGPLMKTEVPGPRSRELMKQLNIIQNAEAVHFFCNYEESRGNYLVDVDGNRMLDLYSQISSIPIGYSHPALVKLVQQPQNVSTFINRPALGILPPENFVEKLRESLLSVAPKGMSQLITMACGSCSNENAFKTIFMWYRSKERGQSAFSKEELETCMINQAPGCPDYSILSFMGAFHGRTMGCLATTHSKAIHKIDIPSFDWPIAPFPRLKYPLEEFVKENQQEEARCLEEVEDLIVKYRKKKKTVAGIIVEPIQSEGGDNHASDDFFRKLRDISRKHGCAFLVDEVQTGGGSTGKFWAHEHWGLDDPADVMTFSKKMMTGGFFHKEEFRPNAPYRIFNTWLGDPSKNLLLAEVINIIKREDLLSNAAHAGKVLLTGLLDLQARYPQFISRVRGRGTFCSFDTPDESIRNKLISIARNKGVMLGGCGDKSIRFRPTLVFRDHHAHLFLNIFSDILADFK

For the compound `N[C@H]1C=C(C(=O)O)CCC1=C(F)F` [Compound 14, (S)-3-Amino-4-(difluoromethylene)cyclohex-1-ene-1-carboxylic acid], at hOAT [1], the “return of enzyme activity on dialysis” value is “no enzyme activity recovered”. Further, the “inhibitory activities against Asp-AT” value in [2] is recorded as “little or no inhibitory activities”. Also, the “inhibitory activities against Ala-AT” value in series [3] is reported as “little or no inhibitory activities”. Besides, the partition ratio at hOAT [4] was determined as 0.6. In addition, on GABA-AT, the Ki was > 1240 µM and the kinact was > 0.006 s⁻¹. Also, the kinact/KI on GABA-AT (read-out: kinact/KI (converted)) is 4.83 M⁻¹ s⁻¹. The kinact/KI at GABA-AT (values marked b from the slope of kobs vs [I]) is 0.29 ± 0.01^b mM^−1min^−1. Further, in the series “in vivo PK profiles” (in vivo, iv, 10 mg/kg), the area under the curve AUC(0-inf) is 2490 ng·h/mL, the AUC(0-t) was 2470 ng·h/mL, the clearance came out at 66.9 mL/min/kg and the half-life is 9.6 min. For the same compound, in the series “in vivo PK profiles” (in vivo, iv, 10 mg/kg), the Cmax is 14800 ng/mL. In addition, the Vd in “in vivo PK profiles” (in vivo, iv, 10 mg/kg, read-out: VSS) came out at 0.64 L/kg. Further, in “in vivo PK profiles” (in vivo, po, 30 mg/kg), the area under the curve AUC(0-inf) came to 4330 ng·h/mL, the AUC(0-t) turned out to be 4260 ng·h/mL, the bioavailability amounted to 58% and the Cmax is 3430 ng/mL. In the series “in vivo PK profiles” (in vivo, po, 30 mg/kg, read-out: Tmax), the Tmax stood at 15 min. For the same compound, in the series “in vivo PK profiles” (in vivo, IV, 10 mg/kg), the Kp at 0.25 h is 0.05. Also, the Kp at 0.25 h in “in vivo PK profiles” (in vivo, PO, 30 mg/kg) is 0.01. Besides, the DMPK properties entry in “in vivo PK profiles” (preliminary assessment) is reported as “favorable DMPK properties”. In addition, at hOAT [5], the Ki was found to be 12 ± 2 µM, the kinact was 0.00323 s⁻¹ and the kinact/KI is 270 M⁻¹ s⁻¹. For the same compound, the “times more efficient/potent as an inactivator of hOAT than the comparator” value on hOAT [5] (versus 10 (b129 prints 7), by kinact/KI) was determined as 18.6. Besides, at hOAT [6] (with α-KG), the “F^− Release” value amounted to 3.95 µM and the “Fluoride ions released per active site” value turned out to be 2.95 equiv. Also, at hOAT [6] (without α-KG), the “F^− Release” value is 3.57 µM and the “Fluoride ions released per active site” value is given as 2.66 equiv.

Consider `N[C@H]1C[C@@H](C(=O)O)CC1=C(F)F` [Compound 5, reference compound], for which, on hOAT [1], the “return of enzyme activity on dialysis” value is reported as “fully irreversible inhibitor”.

Regarding `N[C@H]1C[C@H](C(=O)O)CCC1=C(F)F` [Compound 13, (1R,3S)-3-Amino-4-(difluoromethylene)cyclohexane-1-carboxylic acid], on GABA-AT, the Ki is > 13100 µM and the kinact is > 0.00317 s⁻¹. The kinact/KI on GABA-AT (setting [8]) is 0.25 M⁻¹ s⁻¹. On hOAT [5], the Ki stood at 1480 ± 210 µM, the kinact was 0.0015 s⁻¹ and the kinact/KI was 1.07 M⁻¹ s⁻¹.

As for `N[C@H]1CC(C(=O)O)=CCC1=C(F)F` [Compound 15, (S)-5-Amino-4-(difluoromethylene)cyclohex-1-ene-1-carboxylic acid], at GABA-AT, the Ki is > 2490 µM and the kinact was > 0.00367 s⁻¹. Also, on GABA-AT (setting [8]), the kinact/KI is 1.45 M⁻¹ s⁻¹. At hOAT [5], the Ki was 98 ± 14 µM, the kinact is 0.0009 s⁻¹ and the kinact/KI is 9.17 M⁻¹ s⁻¹.

On to `N[C@H]1C[C@@H](C(=O)O)CCC1=C(F)F` [Compound 12, (1S,3S)-3-amino-4-(difluoromethylene)cyclohexane-1-carboxylic acid], for which, at GABA-AT, the Ki is 1310 ± 400 µM and the kinact was 0.000417 s⁻¹. In addition, on GABA-AT (setting [8]), the kinact/KI was 0.317 M⁻¹ s⁻¹. Moreover, at hOAT [5], the Ki is 1270 ± 200 µM, the kinact is 0.00193 s⁻¹ and the kinact/KI was 1.52 M⁻¹ s⁻¹.

Turning to `N[C@H]1C=C(C(=O)O)CC1=C(F)F` [Compound 9, reference compound], the kinact/KI on hOAT [7] (from ref 29) is 127 M⁻¹ s⁻¹. Also, at hOAT [7] (from ref 40), the Ki was 65 ± 10 µM and the kinact/KI is 14.5 M⁻¹ s⁻¹. In the series “in vivo PK profiles” (IV, 3 mg/kg), this compound came in with an AUCinf of 653.80 ng·h/mL, an AUClast of 634.12 ng·h/mL, a C0/Cmax of 2376.08 ng/mL and a CL of 76.48 mL/min/kg. In the series “in vivo PK profiles” (IV, 3 mg/kg), the T1/2 amounted to 30.6 min and the VSS was 1.75 L/kg. Further, in “in vivo PK profiles” (PO, 10 mg/kg), the “% F” value is listed as 42%, the AUCinf is 1006.60 ng·h/mL, the AUClast amounted to 881.20 ng·h/mL and the C0/Cmax turned out to be 1575.74 ng/mL. Moreover, the Tmax in the series “in vivo PK profiles” (PO, 10 mg/kg) is 15 min.
